Laboratory results as given in ChEMBL document CHEMBL4842340, “Development of Cagrilintide, a Long-Acting Amylin Analogue” (J Med Chem, 2021).
Values after ≈ are worked out from the molar mass of the structure shown.

Legend:
[1] = Agonist activity at human AMY3R (CT+RAMP3) expressed in Hollex1 cells incubated for 3 hrs by luminescence assay; format: cell-based; details: Hollex1, 3 h
[2] = Agonist activity at human calcitonin receptor expressed in BHK570 cells assessed as increase in intracellular cAMP concentration incubated for 3 hrs in absence of albumin by CRE luciferase reporter gene assay; format: cell-based; details: BHK570, 3 h
[3] = Displacement of [125I]-amylin from human AMY3R (CTR+RAMP3) expressed in BHK-13 cells measured after 120 mins by scintillation proximity assay; format: cell-based
[4] = Displacement of [125I]-calcitonin from human calcitonin receptor expressed in tk-ts 13 cells measured after 120 mins by scintillation proximity assay; format: cell-based; details: tk-ts13
[5] = Displacement of [125I]-amylin from rat AMY3R (CTR+RAMP3) expressed in BHK-13 cells measured after 120 mins by scintillation proximity assay; format: cell-based
[6] = Displacement of [125I]-calcitonin from rat calcitonin receptor expressed in tk-ts 13 cells measured after 120 mins by scintillation proximity assay; format: cell-based; details: tk-ts13
[7] = Solubility of the compound in lactate at pH 3 by UPLC analysis; format: physicochemical; details: lactate buffer
[8] = Solubility of the compound in lactate at pH 4 by UPLC analysis; format: physicochemical; details: lactate buffer
[9] = species: Homo sapiens; assay: Ratio of EC50 for human calcitonin receptor expressed in BHK570 cells to EC50 for human AMY3R (CT+RAMP3) expressed in Hollex1 cells; format: cell-based
[10] = species: Homo sapiens; assay: Ratio of IC50 for displacement of [125I]-calcitonin from human calcitonin receptor expressed in tk-ts 13 cells to IC50 for displacement of [125I]-amylin from human AMY3R (CTR+RAMP3) expressed in BHK-13 cells; format: cell-based
[11] = species: Rattus norvegicus; assay: Ratio of IC50 for displacement of [125I]-calcitonin from rat calcitonin receptor expressed in tk-ts 13 cells to IC50 for displacement of [125I]-amylin from rat AMY3R (CTR+RAMP3) expressed in BHK-13 cells; format: cell-based
[12] = target: Insulin (Homo sapiens) (UniProt P01308); assay: Effect on insulin (unknown origin) amyloid fibril formation assessed as lag time in glycyl-glycine buffer at pH 4 measured after 45 hrs by thioflavin-T fluorescence assay
Chain of Insulin (Homo sapiens) (P01308 whole entry): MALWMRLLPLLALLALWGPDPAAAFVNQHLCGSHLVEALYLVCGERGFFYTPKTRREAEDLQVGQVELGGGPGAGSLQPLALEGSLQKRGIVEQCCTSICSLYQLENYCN

[13] = target: Insulin (Homo sapiens) (UniProt P01308); assay: Effect on insulin (unknown origin) amyloid fibril formation assessed as peptide recovery in glycyl-glycine buffer at pH 4 measured after 45 hrs by thioflavin-T fluorescence assay relative to control; parameters: concentration or dose not given beside the values

| EC50 [1] [pM] | EC50 [2] [pM] | IC50 [3] [pM] | IC50 [4] [pM] | IC50 [5] [pM] | IC50 [6] [pM] | solubility [7] [µM] | solubility [8] [µM] | TIME [12] [h] | Activity [13] [%] | SMILES | Ratio EC50 [9] | Ratio IC50 [10] | Ratio IC50 [11] |
| --- | --- | --- | --- | --- | --- | --- | --- | --- | --- | --- | --- | --- | --- |
| 77 | 129 | 818 | 1540 | 445 | 1370 | 200 (≈ 913 µg/mL) | 200 (≈ 913 µg/mL) |  |  | CC[C@H](C)[C@H](NC(=O)[C@H](CCC(=O)O)NC(=O)CNC(=O)[C@H](Cc1ccccc1)NC(=O)[C@H](CC(N)=O)NC(=O)[C@H](CC(N)=O)NC(=O)[C@H](CO)NC(=O)[C@H](CO)NC(=O)[C@H](CCCNC(=N)N)NC(=O)[C@H](Cc1cnc[nH]1)NC(=O)[C@H](CC(C)C)NC(=O)[C@H](Cc1ccccc1)NC(=O)[C@H](CCC(=O)O)NC(=O)[C@H](C)NC(=O)[C@H](CC(C)C)NC(=O)[C@H](CCCNC(=N)N)NC(=O)[C@H](CCC(N)=O)NC(=O)[C@@H](NC(=O)[C@H](C)NC(=O)[C@@H]1CSSC[C@H](NC(=O)[C@H](Cc2cnc[nH]2)NC(=O)CC[C@H](NC(=O)CCCCCCCCCCCCCCCCCCC(=O)O)C(=O)O)C(=O)N[C@@H](CC(N)=O)C(=O)N[C@@H]([C@@H](C)O)C(=O)N[C@@H](C)C(=O)N[C@@H]([C@@H](C)O)C(=O)N1)[C@@H](C)O)C(=O)N[C@@H](CC(C)C)C(=O)N[C@@H](CO)C(=O)N[C@@H](CCCNC(=N)N)C(=O)N[C@H](C(=O)N[C@@H](CC(N)=O)C(=O)N[C@H](C(=O)NCC(=O)N[C@@H](CO)C(=O)N[C@@H](CC(N)=O)C(=O)N[C@H](C(=O)N[C@@H](Cc1ccc(O)cc1)C(N)=O)[C@@H](C)O)C(C)C)[C@@H](C)O |  |  |  |
|  |  |  |  |  |  |  |  | 0 | 0 | CC[C@H](C)[C@H](NC(=O)[C@@H](CCC(=O)O)NC(=O)CNC(=O)[C@H](Cc1ccccc1)NC(=O)[C@H](CC(N)=O)NC(=O)[C@H](CC(N)=O)NC(=O)[C@H](CO)NC(=O)[C@H](CO)NC(=O)[C@H](CCCNC(=N)N)NC(=O)[C@H](Cc1cnc[nH]1)NC(=O)[C@H](CC(C)C)NC(=O)[C@H](Cc1ccccc1)NC(=O)[C@H](CCC(=O)O)NC(=O)[C@H](C)NC(=O)[C@H](CC(C)C)NC(=O)[C@H](CCCNC(=N)N)NC(=O)[C@H](CCC(N)=O)NC(=O)[C@@H](NC(=O)[C@H](C)NC(=O)[C@@H]1CSSC[C@H](NC(=O)[C@H](Cc2cnc[nH]2)NC(=O)CC[C@H](NC(=O)CCCCCCCCCCCCCCCCCCC(=O)O)C(=O)O)C(=O)N[C@@H](CC(N)=O)C(=O)N[C@@H]([C@@H](C)O)C(=O)N[C@@H](C)C(=O)N[C@@H]([C@@H](C)O)C(=O)N1)[C@H](C)O)C(=O)N[C@@H](CC(C)C)C(=O)N[C@@H](CO)C(=O)N[C@@H](CCCNC(=N)N)C(=O)N[C@H](C(=O)N[C@@H](CC(N)=O)C(=O)N[C@H](C(=O)NCC(=O)N[C@@H](CO)C(=O)N[C@@H](CC(N)=O)C(=O)N[C@H](C(=O)N[C@@H](Cc1ccc(O)cc1)C(N)=O)[C@@H](C)O)C(C)C)[C@@H](C)O | 2 | 2 | 3 |
